Test results taken from the NIST ThermoML archive (doi:10.1021/je0301747).
Numbers after ± are expanded uncertainties.

Experiments:
[1] = Liquid
[2] = molar enthalpy of vaporization or sublimation; details: 298.15 K; Liquid

| SMILES | vapor or sublimation pressure ([1]; 298.15 K) [kPa] | vapor or sublimation pressure ([1]; 328.15 K) [kPa] | vapor or sublimation pressure ([1]; 358.15 K) [kPa] | vapor or sublimation pressure ([1]; 388.15 K) [kPa] | vapor or sublimation pressure ([1]; 418.15 K) [kPa] | vapor or sublimation pressure ([1]; 448.15 K) [kPa] | vapor or sublimation pressure ([1]; 478.15 K) [kPa] | vapor or sublimation pressure ([1]; 508.15 K) [kPa] | vapor or sublimation pressure ([1]; 538.15 K) [kPa] | vapor or sublimation pressure ([1]; 568.15 K) [kPa] | vapor or sublimation pressure ([1]; 575.15 K) [kPa] | molar enthalpy [2] [kcal/mol] |
| --- | --- | --- | --- | --- | --- | --- | --- | --- | --- | --- | --- | --- |
| CCCCCCCCCCCCCCCCCCCCCCCCCCCC [octacosane] | 3.173e-10 | 5.263e-08 ± 5.1e-08 | 3.022e-06 ± 1.4e-06 | 7.829e-05 ± 2.4e-05 | 0.001107 ± 0.00027 | 0.009795 ± 0.0022 | 0.06012 ± 0.013 | 0.276 ± 0.057 | 1.004 ± 0.21 | 3.025 ± 0.62 | 3.823 ± 0.77 | 33.9 ± 3.35 |
| CCCCCCCCCCCCCCCCCCCCCCC [tricosane] | 7.059e-08 | 4.801e-06 ± 2.5e-06 | 0.0001361 ± 4.3e-05 | 0.002006 ± 0.0005 | 0.01797 ± 0.004 | 0.1096 ± 0.023 | 0.4952 ± 0.1 | 1.763 ± 0.36 | 5.183 ± 1.1 | 13.05 ± 2.6 | 15.88 ± 3.2 | 28 ± 1.96 |
| CCCCCCCCCCCCCCCCCCCCC [heneicosane] | 6.69e-07 | 3.15e-05 ± 2.3e-05 | 0.0006673 ± 0.00029 | 0.007785 ± 0.0025 | 0.05774 ± 0.015 | 0.3019 ± 0.071 | 1.201 ± 0.27 | 3.849 ± 0.83 | 10.36 ± 2.2 | 24.22 ± 5 | 29.02 ± 6 | 25.5 ± 1.74 |
| CCCCCCCCCCCCCCCCCCCCCCCCC [pentacosane] | 8.145e-09 | 7.894e-07 ± 5.2e-07 | 2.963e-05 ± 1.1e-05 | 0.0005462 ± 0.00015 | 0.005863 ± 0.0014 | 0.04146 ± 0.009 | 0.2114 ± 0.044 | 0.8322 ± 0.17 | 2.661 ± 0.54 | 7.192 ± 1.5 | 8.882 ± 1.8 | 30.3 ± 2.03 |
| CCCCCCCCCCCCCCCCCCCCCCCCCCCCC [nonacosane] | 1.018e-10 | 2.044e-08 ± 2.3e-08 | 1.365e-06 ± 6.8e-07 | 3.99e-05 ± 1.1e-05 | 0.0006219 ± 0.00012 | 0.005963 ± 0.00088 | 0.0391 ± 0.005 | 0.1897 ± 0.022 | 0.7225 ± 0.08 | 2.264 ± 0.24 | 2.884 ± 0.3 | 35.2 ± 3.59 |
| CCCCCCCCCCCCCCCCCCCCCCCCCCC [heptacosane] | 1.127e-09 | 1.502e-07 ± 1.2e-07 | 7.253e-06 ± 2.8e-06 | 0.0001636 ± 3.8e-05 | 0.002067 ± 0.00034 | 0.01669 ± 0.0023 | 0.09492 ± 0.012 | 0.4089 ± 0.046 | 1.409 ± 0.15 | 4.056 ± 0.43 | 5.076 ± 0.53 | 32.4 ± 2.29 |
| CCCCCCCCCCCCCCCCCCCCCCCCCCCCCC [triacontane] | 3.317e-11 | 8.03e-09 ± 1e-08 | 6.217e-07 ± 3.6e-07 | 2.045e-05 ± 7.1e-06 | 0.0003508 ± 9.2e-05 | 0.003636 ± 0.00084 | 0.02543 ± 0.0055 | 0.1301 ± 0.027 | 0.5185 ± 0.11 | 1.687 ± 0.34 | 2.167 ± 0.44 | 36.4 ± 3.82 |
| CCCCCCCCCCCCCCCCCCCCCCCCCC [hexacosane] | 2.809e-09 | 3.247e-07 ± 2.4e-07 | 1.401e-05 ± 5.6e-06 | 0.0002888 ± 8.1e-05 | 0.003393 ± 0.0008 | 0.02583 ± 0.0056 | 0.14 ± 0.029 | 0.5797 ± 0.12 | 1.934 ± 0.4 | 5.417 ± 1.1 | 6.742 ± 1.4 | 31.5 ± 2.22 |
| CCCCCCCCCCCCCCCCCCCCCC [docosane] | 2.148e-07 ± 4e-07 | 1.218e-05 ± 5.5e-06 | 0.0002988 ± 8.8e-05 | 0.003922 ± 0.00095 | 0.032 ± 0.007 | 0.1809 ± 0.038 | 0.7674 ± 0.16 | 2.593 ± 0.53 | 7.298 ± 1.5 | 17.71 ± 3.6 | 21.39 ± 4.3 | 26.7 ± 1.89 |
| CCCCCCCCCCCCCCCCCCCCCCCC [tetracosane] | 2.373e-08 | 1.931e-06 ± 1.1e-06 | 6.308e-05 ± 2.1e-05 | 0.001041 ± 0.00027 | 0.01022 ± 0.0023 | 0.06716 ± 0.014 | 0.3225 ± 0.067 | 1.208 ± 0.25 | 3.705 ± 0.75 | 9.668 ± 2 | 11.85 ± 2.4 | 29.1 ± 1.96 |
